Measurements published in patent US20250368624A1, “M24B AMINOPEPTIDASE INHIBITORS FOR CARD8 INFLAMMASOME ACTIVATION” (Memorial Sloan-Kettering Cancer Center, priority 2022, published 2025).

How the values were obtained:
[1] = test system: MV4;11 CASP1-/- cells; assay: CellTiter-Glo cell viability, CASP1-/- MV4;11 cells; assay type: cell-based; conditions: Homo sapiens, MV4-11; 24 h, CTG
Description: Cloning. CASP1^−/− MV4;11 cells^12; CARD8^−/− MV4;11, THP-1, OCI-AML2 cells^14; DPP8/9^−/− THP-1^12; PEPD^−/−, XPNPEP1^−/−, PEPD XPNPEP1^−/− THP-1 cells were generated. Plasmids for CARD8 variants, CASP1, GSDMD, dTAG-CARD8^ZUC were cloned as described previously (Hollingsworth et al., 2021; Johnson et al., 2018; Sharif et al., 2021).
(§1) CellTiter-Glo cell viability and CytoTox-Fluor cell death assays. Cells were plated (2,000 cells per well) in white, 384-well clear-bottom plates (Corning) using an EL406 Microplate Washer/Dispenser (BioTek) in 25 μL final volume of medium. To the cell plates were added compounds at different concentrations using a pintool (CyBio) and the plates were allowed to incubate in the incubator. After incubation for indicated times, CytoTox-Fluor reagent (Promega, G9262) was added according to the manufacturer's protocol. The assay plates were then incubated for another 30 min before fluorescence was recorded using a Cytation 5 Cell Imaging Multi-Mode Reader (BioTek). Next, CellTiter-Glo reagent (Promega, G7573) was subsequently added to the assay plates following the manufacturer's protocol. Assay plates were shaken on an orbital shaker for 2 min and incubated at 25° C. for 10 min. Luminescence was then read using a Cytation 5 Cell Imaging Multi-Mode Reader (BioTek).

[2] = test system: MV4;11 cells; assay: Propidium iodide uptake, MV4;11 cells (WT, CASP1-/-, CARD8-/-); assay type: cell-based; conditions: MV4;11 WT vs CASP1-/- or CARD8-/-, 6.25 μM
Description: Propidium iodideflux analysis. 2×10^4 MV4;11 or OCI-AML2 cells were plated in 384-well, black, clear-bottom plate (Corning) in RPMI medium. Cells were then treated as indicated and propidium iodide (PI) was added at a final concentration of 10 μM. PI fluorescence was measured at (Ex/Em: 535/617 nm) recorded at 37° C. every 5 mins in a Cytation 5 Cell Imaging Multi-Mode Reader (BioTek). The obtained measurements were baseline corrected to vehicle/DMSO and normalized to maximum response.

[3] = target: recombinant human PEPD (Homo sapiens (Human), UniProt P12955); assay: PEPD substrate assay (Ala-Pro cleavage, L-alanine assay kit); assay type: biochemical; conditions: for IC50: 50 nM recombinant human PEPD, Ala-Pro 40 μM, 25° C.
[4] = test system: N/TERT-1 keratinocytes; assay: Cell viability of N/TERT-1 keratinocytes (NLRP1 inflammasome); assay type: cell-based, human; conditions: VbP 10 μM, CQ compounds 20 μM, 24 h, CTG
Description: Cell Culture. HEK293T, THP-1, RAW264.7 cells were purchased from ATCC. MV4;11, OCI-AML2 cells were purchased from DSMZ. N/TERT1 cells were a gift from the Rheinwald Lab (Dickson et al., 2000). HEK293T and RAW264.7 cells were grown in Dulbecco's Modified Eagle's Medium (DMEM) with L-glutamine and 10% fetal bovine serum (FBS). N/TERT1 cells were grown in Keratinocyte serum free medium (KSFM) supplemented with 1× penicillin/streptomycin, bovine pituitary extract (25 μg/ml) and epidermal growth factor (EGF) (0.2 ng/ml). All other cell lines were grown in Roswell Park Memorial Institute (RPMI) medium 1640 with L-glutamine and 10% fetal bovine serum (FBS). All cells were grown at 37° C. in a 5% CO2 atmosphere incubator. Cell lines were regularly tested for mycoplasma using the MycoAlert™ Mycoplasma Detection Kit (Lonza).
as §1

[5] = test system: OCI-AML2 cells; assay: CellTiter-Glo cell viability, OCI-AML2 cells (WT, CARD8-/-); assay type: cell-based; conditions: OCI-AML2 WT vs CARD8-/-, 24 h, CTG
Description: as §1

[6] = test system: MV4;11 WT cells; assay: CellTiter-Glo cell viability, WT MV4;11 cells; assay type: cell-based; conditions: Homo sapiens, MV4-11; 24 h, CTG
Summary of the method: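 Cells plated at 2,000 per well and treated with compound at varying concentrations for the indicated times. CytoTox-Fluor fluorescence read after 30 min, then CellTiter-Glo added (2 min shaking, 10 min at 25° C) and luminescence recorded.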

[7] = test system: primary bone marrow-derived macrophages (BMDMs) and mouse RAW264.7 cells; assay: LDH release and GSDMD cleavage in BMDMs and RAW264.7 cells (mouse NLRP1); assay type: cell-based; conditions: VbP 10 μM, CQ31/CQ80 20 μM, 24 h
Description: Mouse BMDM isolation and culture. Bone marrow was harvested from the femurs and tibias of 7-12-week-old C57BL/6J mice. Briefly, femurs and tibias were harvested from mice and crushed with a mortar and pestle in cold 1×PBS supplemented with 2.5% FBS. The mixture was passed through a 70-μm nylon cell strainer. RBCs were lysed for 4-5 min on ice in 1×RBC lysis buffer (Biolegend) and cells were centrifuged at 300×g for 5 min at 4° C. The cell pellet was washed in cold 1×PBS supplemented with 2.5% FBS before being passed again through in a 70-μm nylon cell strainer and counted. Counted cells were plated on non-tissue culture 10-cm plates at 5-10×10^6 cells per plate in DMEM supplemented with 10% FBS and 15-20% L-cell media. Cells were incubated at 37° C. for 6 days before replating and assaying as indicated.
(§2) LDH cytotoxicity and immunoblotting assays. HEK293T cells were transiently transfected and treated with inhibitors as indicated. MV4;11, OCI AML2, THP-1, and RAW264.7 cells were plated in 12-well culture plates at 5×10^5 cells/well and treated as indicated. Supernatants were analyzed for LDH activity using the Pierce LDH Cytotoxicity Assay Kit (Life Technologies). LDH activity was quantified relative to a lysis control where cells were lysed in 80 μL of a 9% Triton X-100 solution. For immunoblotting, cells were washed 2× in PBS (pH=7.4), resuspended in PBS, and lysed by sonication. Protein concentrations were determined and normalized using the DCA Protein Assay kit (Bio-Rad). The samples were separated by SDS-PAGE, immunoblotted, and visualized using the Odyssey Imaging System (Li-Cor).

[8] = test system: MV4;11, OCI-AML2, and THP-1 cells; assay: LDH release and GSDMD cleavage immunoblot; assay type: cell-based; conditions: WT vs CARD8-/- cells, 20 μM, 24 h
Description: as §2

recombinant human PEPD, sequence (P12955 whole entry): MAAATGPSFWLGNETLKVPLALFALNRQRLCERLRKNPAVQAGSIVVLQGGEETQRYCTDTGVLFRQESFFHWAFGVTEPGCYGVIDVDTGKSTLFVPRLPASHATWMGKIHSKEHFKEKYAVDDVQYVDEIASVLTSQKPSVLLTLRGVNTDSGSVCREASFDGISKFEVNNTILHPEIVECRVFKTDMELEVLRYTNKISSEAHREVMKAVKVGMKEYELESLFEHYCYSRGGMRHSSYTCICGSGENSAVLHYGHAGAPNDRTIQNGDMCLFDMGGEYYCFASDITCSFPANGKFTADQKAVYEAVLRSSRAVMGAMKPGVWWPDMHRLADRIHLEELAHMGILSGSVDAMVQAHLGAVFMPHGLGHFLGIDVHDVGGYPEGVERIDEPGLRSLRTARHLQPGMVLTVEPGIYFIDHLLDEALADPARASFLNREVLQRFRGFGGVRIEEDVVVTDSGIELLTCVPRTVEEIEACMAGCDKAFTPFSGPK

Which IC50 [1] does the source give for `COC(=O)[C@@H]1CCCN1C(=O)[C@@H](O)[C@H](N)CC(C)C` [CQ31] here?
Its IC50 is greater than 100000 nM.

What about the PI uptake [2] of the same molecule?
Its PI uptake is “induced PI uptake in WT, but not CASP1−/− or CARD8−/−”.

What about the “PEPD inhibition (in words)” value [3] of the same molecule?
Its value is “inhibited PEPD and XPNPEP1 inhibitors similarly”.

And the IC50 [3]?
The IC50 was 670 nM.

And the “cell death in N/TERT-1 keratinocytes” value [4]?
Its value is “Only VbP induced cell death”.

And the cell death [5]?
The cell death was “induced cell death in WT, but not CARD8−/−”.

What about the IC50 [6] of the same molecule?
The IC50 was 3800 nM.

What about the “pyroptosis (LDH release and GSDMD cleavage)” value [7] of the same molecule?
Its value is “only VbP induced pyroptosis”.

What about the “LDH release and GSDMD cleavage” value [8] of the same molecule?
The value was “induced lactate dehydrogenase (LDH) release and GSDMD cleavage”.

Which IC50 [1] does the source give for `COC(=O)[C@H](CC(C)C)NC(=O)[C@@H]1CCCN1C(=O)[C@@H](O)[C@H](N)CC(C)C` [CQ80, Methyl ((2S,3R)-3-amino-2-hydroxy-5-methylhexanoyl)-L-prolyl-L-leucinate] here?
Its IC50 is greater than 20000 nM.

What about the PI uptake [2] of the same molecule?
Its PI uptake is “induced PI uptake in WT, but not CASP1−/− or CARD8−/−”.

What about the IC50 [3] of the same molecule?
Its IC50 is 910 nM.

What about the “cell death in N/TERT-1 keratinocytes” value [4] of the same molecule?
The value was “Only VbP induced cell death”.

And the cell death [5]?
The cell death was “induced cell death in WT, but not CARD8−/−”.

And the IC50 [6]?
Its IC50 is 270 nM.

And the “pyroptosis (LDH release and GSDMD cleavage)” value [7]?
The value was “only VbP induced pyroptosis”.

And the “LDH release and GSDMD cleavage” value [8]?
The value was “induced lactate dehydrogenase (LDH) release and GSDMD cleavage”.
